The subject of one assay is CD4+ CD25− naïve T cells. The assay is described as follows: In vitro naïve T cell differentiation, Th2-skew (IL-4+). The format is cell-based, C57BL/6 mice. As to conditions: Th2 skewing conditions; vs solvent control. As for the experimental part:
When naïve CD4+ CD25− cells were cultured 72 hours in αCD3/28 coated wells with Th0-, Th1- or Th2-skew cytokines and indole or solvent control, followed by stimulation with PMA, Ionomycin and Golgi Plug for the last 5 hours of culture, no effect on the % of Th1 and Th2 cells was observed (in contrast to the significant effect that indole has on Treg and Th17 cells; see FIGS. 2A and 2B).
CD4+ CD25− T cells were isolated to high purity (>98%) from the pooled spleen and mesenteric lymph nodes of C57BL/6 mice (Jackson Labs) with a BD FACS Aria II flow cytometer. Fc Block (BD), αCD4-efluor450 (eBioscience clone GK1.5) and αCD25-PECy7 (eBioscience clone PC61.5) antibodies were used for staining before sorting.
For Th1-skew: 5 ng/mL IL-12 (Peprotech cat. #210-12) and 10 µg/mL αIL-4 (BioXCell clone 11B11) were added to culture. For Th2-skew: 10 ng/mL IL-4 (Peprotech) and 10 μg/mL αIFN-γ (BioXCell clone R4-6A2) were added to culture. For Th17-skew: 10 ng/mL IL-6 (Peprotech), 5 ng/mL IL-23 (R&D), 0.5 ng/mL TGF-β (Peprotech), 10 μg/mL al-4 (BioXCell clone 11B11), and 10 μg/mL αIFN-γ (BioXCell clone R4-6A2) were added to culture. For Treg-skew: 2 ng/mL TGF-β (Peprotech) and 100 U/mL IL-2 (Roche) were added to culture. Sodium Propionate, sodium acetate, sodium butyrate and sodium chloride (all from Sigma-Aldrich) were solubilized in media and added to culture. […]

For another assay, the system named is iTregs. As to the kind of experiment: iTreg cytokine expression (TGF-β, IL-10). The class given is cell-based, mice. How it is done: (§1) FOXP3-EGFP naïve CD4+ CD25− cells cultured in αCD3/28 coated wells with Treg-skew cytokines and indole or solvent control were cultured for 72 hours, and assessed for FoxP3 expression and proliferation by CFSE dilution.
The iTregs were next assessed for cytokine production when conditioned with indole or butyrate.
For flow cytometry, cells are treated with Golgi plug (Brefeldin A) for four hours and then stained with fluorophore-conjugated mAbs against both inflammatory (e.g., IL-6, IL-12, IL-17, TNF-α) and anti-inflammatory (e.g., IL-10, IL-35, TGF-β) cytokines. Samples are stained with the maximum number of antibodies. Furthermore, expression of established Treg markers (FOXP3, CD25hi, CD103, CD62L, GITR, PD-1, CD152, CD127, ICOS, Granzyme-B) [Vignali, D. A., L. W. Collison, and C. J. Workman, Nat Rev Immunol 8(7):523-32. (2008); Chen, J., et al., Int Immunopharmacol 11(5):610-7 (2011)] and markers of an inflammatory phenotype (RORγT) can be analyzed. […] For all conditions, Tregs generated without the TDMM can be used as the control. The effect of the TDMMs on suppression of effector T cell proliferation is determined as described for FIG. 4. Such assays permit determination of whether the iTregs generated with different TDMMs are functional as natural Tregs.

The subject of assay [1] is effector T cell proliferation. The assay is described as follows: Suppression assay of effector T cell proliferation by iTregs. The format is cell-based, mice. How it is done:
as §1
Specifically, FIG. 13 graphically illustrates the results of the suppression assay, showing the suppression of T-cell proliferation as determined by IL-2 production (an essential marker of T-cell proliferation) with increased proportions of Tregs added to co-cultures with effector T-cells..
After 72 h, cells are stimulated with PMA/ionomycin (10 ng/mL PMA, […] ionomycin). For flow cytometry, cells are treated with Golgi plug (Brefeldin A) for four hours and then stained with fluorophore-conjugated mAbs against both inflammatory (e.g., IL-6, IL-12, IL-17, TNF-α) and anti-inflammatory (e.g., IL-10, IL-35, TGF-β) cytokines. Samples are stained with the maximum number of antibodies. Furthermore, expression of established Treg markers (FOXP3, CD25hi, CD103, CD62L, GITR, PD-1, CD152, CD127, ICOS, Granzyme-B) [Vignali, D. A., L. W. Collison, and C. J. Workman, Nat Rev Immunol 8(7):523-32. (2008); Chen, J., et al., Int Immunopharmacol 11(5):610-7 (2011)] and markers of an inflammatory phenotype (RORγT) can be analyzed. […] The effect of the TDMMs on suppression of effector T cell proliferation is determined as described for FIG. 4. […]

Entries after “also recorded” stand apart in the source; their conditions may differ.

Take `c1ccc2[nH]ccc2c1` [Indole, indole]: the “effect on % Th2 cells (IL-4+)” value in the assay on CD4+ CD25− naïve T cells is “no effect; also recorded: did not influence the development of Th1 and Th2 cells”. For the same molecule, the TGF-β secretion result with iTregs (indole-conditioned Tregs vs control iTregs (DMF), overnight re-stimulation with αCD3) is “secrete more TGF-β than conventional control iTregs (DMF)”. Besides, the IL-10 expression entry in the assay on iTregs (indole-conditioned iTregs) is given as “inhibition of IL-10 expression”. The TGF-β expression result in the assay with iTregs (indole-conditioned vs butyrate-conditioned iTregs) is recorded as “increased TGF-β expression over butyrate-conditioned iTregs”. For the same molecule, the “suppression of effector T cell proliferation” value in assay [1] (indole-conditioned Tregs, 72-hour suppression assay, vs control iTregs (DMF)) was “suppress effector T cell proliferation function”. Further, the “suppression of T-cell proliferation (IL-2 production)” value in assay [1] (indole-induced iTregs vs nTregs or butyrate-induced iTregs) is “stronger suppressive characteristics, than nTregs or iTregs induced by butyrate”.
